Test results taken from PubChem BioAssay (NCI).
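Five compound concentrations were applied to cells in 96-well plates for 48 hours; endpoints were derived by simple linear interpolation of the resulting dose-response curve. At the TGI there is no net growth.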

What was measured:
Test in all cases: NCI anticancer screen, dose series, 48 h
HOP-92 NSCLC = system: HOP-92 NSCLC
OVCAR-5 ovarian = system: OVCAR-5 ovarian
SK-MEL-2 melanoma = system: SK-MEL-2 melanoma
SK-MEL-28 melanoma = system: SK-MEL-28 melanoma
HCT-116 colon = system: HCT-116 colon
SNB-75 CNS = system: SNB-75 CNS
HT29 colon = system: HT29 colon
NCI-H522 lung = system: NCI-H522 lung
HS 578T breast = system: HS 578T breast
HCC-2998 colon = system: HCC-2998 colon
OVCAR-3 ovarian = system: OVCAR-3 ovarian
786-0 renal = system: 786-0 renal
M14 melanoma = system: M14 melanoma
TK-10 renal = system: TK-10 renal
NCI-H226 lung = system: NCI-H226 lung
SF-268 CNS = system: SF-268 CNS
BT-549 breast = system: BT-549 breast
MDA-MB-231 breast = system: MDA-MB-231 breast
DU-145 prostate = system: DU-145 prostate
ACHN renal = system: ACHN renal
SK-OV-3 ovarian = system: SK-OV-3 ovarian
MDA-MB-435 = system: MDA-MB-435
KM12 colon = system: KM12 colon
IGROV1 ovarian = system: IGROV1 ovarian
COLO 205 colon = system: COLO 205 colon
MALME-3M melanoma = system: MALME-3M melanoma
EKVX NSCLC = system: EKVX NSCLC
HOP-62 NSCLC = system: HOP-62 NSCLC
UACC-62 melanoma = system: UACC-62 melanoma
HCT-15 colon = system: HCT-15 colon
UACC-257 melanoma = system: UACC-257 melanoma
SF-539 CNS = system: SF-539 CNS
A498 renal = system: A498 renal
SN12C renal = system: SN12C renal
CAKI-1 renal = system: CAKI-1 renal
K-562 leukemia = system: K-562 leukemia
T-47D breast = system: T-47D breast
U251 CNS = system: U251 CNS
OVCAR-4 ovarian = system: OVCAR-4 ovarian
A549 NSCLC = system: A549 NSCLC
SF-295 CNS = system: SF-295 CNS
NCI-H23 lung = system: NCI-H23 lung
CCRF-CEM leukemia = system: CCRF-CEM leukemia
RXF 393 renal = system: RXF 393 renal
SK-MEL-5 melanoma = system: SK-MEL-5 melanoma
RPMI-8226 leukemia = system: RPMI-8226 leukemia
HL-60(TB) leukemia = system: HL-60(TB) leukemia
NCI/ADR-RES ovarian = system: NCI/ADR-RES ovarian
PC-3 prostate = system: PC-3 prostate
UO-31 renal = system: UO-31 renal
NCI-H460 lung = system: NCI-H460 lung
OVCAR-8 ovarian = system: OVCAR-8 ovarian
MOLT-4 leukemia = system: MOLT-4 leukemia
SR leukemia = system: SR leukemia
MDA-N = system: MDA-N
SNB-19 CNS = system: SNB-19 CNS
SW-620 colon = system: SW-620 colon

## COc1ccc2nc3cc(Cl)ccc3c(NCCCN(C)CCCNc3ccc4ncn5c6ccccc6c(=O)c3c45)c2c1
HOP-92 NSCLC
  TGI: > 16.9 µM
OVCAR-5 ovarian
  TGI: 6.47 µM
SK-MEL-2 melanoma
  TGI: 7.23 µM
SK-MEL-28 melanoma
  TGI: 7.38 µM
HCT-116 colon
  TGI: 4.86 µM
SNB-75 CNS
  TGI: 7.55 µM
HT29 colon
  TGI: 0.69 µM
NCI-H522 lung
  TGI: 1.73 µM
HS 578T breast
  TGI: > 19.5 µM
HCC-2998 colon
  TGI: 0.423 µM
OVCAR-3 ovarian
  TGI: 6.79 µM
786-0 renal
  TGI: 8.7 µM
M14 melanoma
  TGI: 5.8 µM
TK-10 renal
  TGI: 1.76 µM
NCI-H226 lung
  TGI: 1.98 µM
SF-268 CNS
  TGI: 12.6 µM
BT-549 breast
  TGI: 4.59 µM
MDA-MB-231 breast
  TGI: 6.02 µM
DU-145 prostate
  TGI: 7.19 µM
ACHN renal
  TGI: 3.93 µM
SK-OV-3 ovarian
  TGI: 6.04 µM
MDA-MB-435
  TGI: 5.23 µM
KM12 colon
  TGI: 4.99 µM
IGROV1 ovarian
  TGI: 4.37 µM
COLO 205 colon
  TGI: 3.66 µM
MALME-3M melanoma
  TGI: 7.09 µM
EKVX NSCLC
  TGI: 7.15 µM
HOP-62 NSCLC
  TGI: 6.1 µM
UACC-62 melanoma
  TGI: 7.93 µM
HCT-15 colon
  TGI: > 9.4 µM
UACC-257 melanoma
  TGI: 6.81 µM
SF-539 CNS
  TGI: 5.26 µM
A498 renal
  TGI: 6.52 µM
SN12C renal
  TGI: 5.28 µM
CAKI-1 renal
  TGI: 4.36 µM
K-562 leukemia
  TGI: > 25 µM
T-47D breast
  TGI: > 17.3 µM
U251 CNS
  TGI: 1.63 µM
OVCAR-4 ovarian
  TGI: 3.95 µM
A549 NSCLC
  TGI: 1.55 µM
SF-295 CNS
  TGI: 5.37 µM
NCI-H23 lung
  TGI: 6.13 µM
CCRF-CEM leukemia
  TGI: > 25 µM
RXF 393 renal
  TGI: 1.14 µM
SK-MEL-5 melanoma
  TGI: 4.62 µM
RPMI-8226 leukemia
  TGI: > 25 µM
HL-60(TB) leukemia
  TGI: 2.2 µM
NCI/ADR-RES ovarian
  TGI: > 14.1 µM
PC-3 prostate
  TGI: 5.34 µM
UO-31 renal
  TGI: 7.28 µM
NCI-H460 lung
  TGI: 0.504 µM
OVCAR-8 ovarian
  TGI: 8.52 µM
MOLT-4 leukemia
  TGI: > 5.72 µM
SR leukemia
  TGI: > 7.84 µM
MDA-N
  TGI: 4.77 µM
SNB-19 CNS
  TGI: 5.86 µM
SW-620 colon
  TGI: > 25 µM
